In patent US20140000883A1, “PETROLEUM RECOVERY PROCESS AND SYSTEM” (Shell Oil Company, priority 2012, published 2014):

What was measured:
[1] = Extraction of mined oil sands with solvents (bitumen recovery); conditions: for Recovered Bitumen: not corrected for residual solvent;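 for Recovered Bitumen: Bitumen mass includes 3 to 7 wt% residual solvent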
Protocol: The quality of dimethyl sulfide as an oil recovery agent based on the miscibility of dimethyl sulfide with a crude oil relative to other compounds was evaluated. […] Each oil sands sample was weighed and placed in a cellulose extraction thimble that was placed on a porous polyethylene support disk in a jacketed glass cylinder with a drip rate control valve. Each oil sands sample was then extracted with a selected solvent at a selected temperature (10° C. or 30° C.) in a cyclic contact and drain experiment, where the contact time ranged from 15 to 60 minutes. Fresh contacting solvent was applied and the cyclic extraction repeated until the fluid drained from the apparatus became pale brown in color.
The extracted fluids were stripped of solvent using a rotary evaporator and thereafter vacuum dried to remove residual solvent. […] The residual solids and extraction thimble were air dried, weighed, and then vacuum dried. […] Collectively, the weight of the solid or sample and thimble recovered after extraction plus the quantity of bitumen recovered after extraction divided by the weight of the initial oil sands sample plus the thimble provide the mass closure for the extractions.

[2] = Viscosity of crude blended with dimethyl sulfide (rheometer); format: physicochemical
Protocol: The quality of dimethyl sulfide as an oil recovery agent based on the crude oil viscosity lowering properties of dimethyl sulfide was evalulated. Three crude oils having widely disparate viscosity characteristics—an African Waxy crude, a Middle Eastern asphaltic crude, and a Canadian asphaltic crude—were blended with dimethyl sulfide.
A control sample of each crude was prepared containing no dimethyl sulfide, and samples of each crude were prepared and blended with dimethyl sulfide to prepare crude samples containing increasing concentrations of dimethyl sulfide. Each sample of each of the crudes was heated to 60° C. to dissolve any waxes therein and to permit weighing of a homogeneous liquid, weighed, allowed to cool overnight, then blended with a selected quantity of dimethyl sulfide. The samples of the crude/dimethyl sulfide blend were then heated to 60° C. and mixed to ensure homogeneous blending of the dimethyl sulfide in the samples. Absolute (dynamic) viscosity measurements of each of the samples were taken using a rheometer and closed cup sensor assembly. Viscosity measurements of each of the samples of the West African waxy crude and the Middle Eastern asphaltic crude were taken at 20° C., 40° C., 60° C., 80° C., and then again at 20° C. after cooling from 80° C., where the second measurement at 20° C. is taken to measure the viscosity without the presence of waxes since wax formation occurs slowly enough to permit viscosity measurement at 20° C. without the presence of wax. Viscosity measurements of each of the samples of the Canadian asphaltic crude were taken at 5° C., 10° C., 20° C., 40° C., 60° C., 80° C., The measured viscosities for each of the crudes are shown in Tables 4, 5, and 6 below.

For CSC [Dimethyl Sulfide, dimethyl sulfide], the “recovering bitumen from an oil sand material, compared with the best known fluids” value ([1]; 10° C. and 30° C.) was “comparable”, the “Weight Change” value ([1]; extraction at 10 C.) was 16.9 g and the “Recovered Bitumen” value ([1]; extraction at 10 C.) was 16.55 g. For the same compound, the “Weight Change” value ([1]; extraction at 30 C.) was 16.7 g, the “Recovered Bitumen” value ([1]; extraction at 30 C.) was 16.29 g and the Viscosity ([2]; DMS 1.21 wt. %, 20° C.) was 125.8 mPa s. For the same compound, the Viscosity ([2]; DMS 1.21 wt. %, 20° C. after cooling from 80° C.) was 100.1 mPa s, the Viscosity ([2]; DMS 1.21 wt. %, 40° C.) was 30.94 mPa s and the Viscosity ([2]; DMS 1.21 wt. %, 60° C.) was 14.66 mPa s. For the same compound, the Viscosity ([2]; DMS 1.21 wt. %, 80° C.) was 8.92 mPa s, the Viscosity ([2]; DMS 1.3 wt. %, 20° C.) was 1733.8 mPa s and the Viscosity ([2]; DMS 1.3 wt. %, 20° C. after cooling from 80° C.) was 1624.8 mPa s. For the same compound, the Viscosity ([2]; DMS 1.3 wt. %, 40° C.) was 334.5 mPa s, the Viscosity ([2]; DMS 1.3 wt. %, 60° C.) was 106.7 mPa s and the Viscosity ([2]; DMS 1.3 wt. %, 80° C.) was 44.6 mPa s. It also gave a Viscosity ([2]; DMS 2.48 wt. %, 20° C.) of 122.3 mPa s, a Viscosity ([2]; DMS 2.48 wt. %, 20° C. after cooling from 80° C.) of 89.23 mPa s and a Viscosity ([2]; DMS 2.48 wt. %, 40° C.) of 30.53 mPa s. For the same compound, the Viscosity ([2]; DMS 2.48 wt. %, 60° C.) was 13.66 mPa s, the Viscosity ([2]; DMS 2.48 wt. %, 80° C.) was 8.44 mPa s and the Viscosity ([2]; DMS 2.6 wt. %, 20° C.) was 1026.6 mPa s. It also gave a Viscosity ([2]; DMS 2.6 wt. %, 20° C. after cooling from 80° C.) of 881.1 mPa s, a Viscosity ([2]; DMS 2.6 wt. %, 40° C.) of 219.9 mPa s and a Viscosity ([2]; DMS 2.6 wt. %, 60° C.) of 76.5 mPa s. For the same compound, the Viscosity ([2]; DMS 2.6 wt. %, 80° C.) was 34.3 mPa s, the Viscosity ([2]; DMS 5.03 wt. %, 20° C.) was 78.37 mPa s and the Viscosity ([2]; DMS 5.03 wt. %, 20° C. after cooling from 80° C.) was 55.21 mPa s. For the same compound, the Viscosity ([2]; DMS 5.03 wt. %, 40° C.) was 20.24 mPa s, the Viscosity ([2]; DMS 5.03 wt. %, 60° C.) was 10.45 mPa s and the Viscosity ([2]; DMS 5.03 wt. %, 80° C.) was 6.55 mPa s. It also gave a Viscosity ([2]; DMS 5.3 wt. %, 20° C.) of 496.5 mPa s, a Viscosity ([2]; DMS 5.3 wt. %, 20° C. after cooling from 80° C.) of 503.5 mPa s and a Viscosity ([2]; DMS 5.3 wt. %, 40° C.) of 134.2 mPa s. The Viscosity ([2]; DMS 5.3 wt. %, 60° C.) was 52.2 mPa s, the Viscosity ([2]; DMS 5.3 wt. %, 80° C.) was 25.5 mPa s and the Viscosity ([2]; DMS 7.6 wt. %, 20° C.) was 288.0 mPa s. The Viscosity ([2]; DMS 7.60 wt. %, 20° C.) was 60.92 mPa s, the Viscosity ([2]; DMS 7.6 wt. %, 20° C. after cooling from 80° C.) was 290.0 mPa s and the Viscosity ([2]; DMS 7.60 wt. %, 20° C. after cooling from 80° C.) was 40.89 mPa s. For the same compound, the Viscosity ([2]; DMS 7.6 wt. %, 40° C.) was 89.4 mPa s, the Viscosity ([2]; DMS 7.60 wt. %, 40° C.) was 17.08 mPa s and the Viscosity ([2]; DMS 7.6 wt. %, 60° C.) was 37.4 mPa s. For the same compound, the Viscosity ([2]; DMS 7.60 wt. %, 60° C.) was 9.29 mPa s, the Viscosity ([2]; DMS 7.6 wt. %, 80° C.) was 19.3 mPa s and the Viscosity ([2]; DMS 7.60 wt. %, 80° C.) was 6.09 mPa s. The Viscosity ([2]; DMS 8.01 wt. %, 20° C.) was 5799 mPa s, the Viscosity ([2]; DMS 8.01 wt. %, 40° C.) was 982 mPa s and the Viscosity ([2]; DMS 8.01 wt. %, 60° C.) was 275 mPa s. The Viscosity ([2]; DMS 8.01 wt. %, 80° C.) was 106 mPa s, the Viscosity ([2]; DMS 9.80 wt. %, 20° C.) was 2760 mPa s and the Viscosity ([2]; DMS 9.80 wt. %, 40° C.) was 571 mPa s. For the same compound, the Viscosity ([2]; DMS 9.80 wt. %, 60° C.) was 173 mPa s, the Viscosity ([2]; DMS 9.80 wt. %, 80° C.) was 73 mPa s and the Viscosity ([2]; DMS 9.95 wt. %, 20° C.) was 44.70 mPa s. It also gave a Viscosity ([2]; DMS 9.95 wt. %, 20° C. after cooling from 80° C.) of 30.61 mPa s, a Viscosity ([2]; DMS 9.95 wt. %, 40° C.) of 13.03 mPa s and a Viscosity ([2]; DMS 9.95 wt. %, 60° C.) of 7.58 mPa s. The Viscosity ([2]; DMS 9.95 wt. %, 80° C.) was 5.04 mPa s, the Viscosity ([2]; DMS 10.1 wt. %, 20° C.) was 150.0 mPa s and the Viscosity ([2]; DMS 10.1 wt. %, 20° C. after cooling from 80° C.) was 150.5 mPa s. For the same compound, the Viscosity ([2]; DMS 10.1 wt. %, 40° C.) was 52.4 mPa s, the Viscosity ([2]; DMS 10.1 wt. %, 60° C.) was 24.5 mPa s and the Viscosity ([2]; DMS 10.1 wt. %, 80° C.) was 13.5 mPa s. It also gave a Viscosity ([2]; DMS 14.81 wt. %, 5° C.) of 1794 mPa s, a Viscosity ([2]; DMS 14.81 wt. %, 10° C.) of 1155 mPa s and a Viscosity ([2]; DMS 14.81 wt. %, 20° C.) of 548 mPa s. For the same compound, the Viscosity ([2]; DMS 14.81 wt. %, 40° C.) was 159 mPa s, the Viscosity ([2]; DMS 14.81 wt. %, 60° C.) was 64 mPa s and the Viscosity ([2]; DMS 14.81 wt. %, 80° C.) was 32 mPa s. The Viscosity ([2]; DMS 15.13 wt. %, 20° C.) was 23.96 mPa s, the Viscosity ([2]; DMS 15.13 wt. %, 20° C. after cooling from 80° C.) was 17.64 mPa s and the Viscosity ([2]; DMS 15.13 wt. %, 40° C.) was 8.32 mPa s. For the same compound, the Viscosity ([2]; DMS 15.13 wt. %, 60° C.) was 4.97 mPa s, the Viscosity ([2]; DMS 15.13 wt. %, 80° C.) was 3.38 mPa s and the Viscosity ([2]; DMS 15.2 wt. %, 20° C.) was 59.4 mPa s. It also gave a Viscosity ([2]; DMS 15.2 wt. %, 20° C. after cooling from 80° C.) of 60.7 mPa s, a Viscosity ([2]; DMS 15.2 wt. %, 40° C.) of 25.2 mPa s and a Viscosity ([2]; DMS 15.2 wt. %, 60° C.) of 13.6 mPa s. It also gave a Viscosity ([2]; DMS 15.2 wt. %, 80° C.) of 8.2 mPa s, a Viscosity ([2]; DMS 19.30 wt. %, 20° C.) of 15.26 mPa s and a Viscosity ([2]; DMS 19.30 wt. %, 20° C. after cooling from 80° C.) of 12.06 mPa s. The Viscosity ([2]; DMS 19.30 wt. %, 40° C.) was 6.25 mPa s, the Viscosity ([2]; DMS 19.30 wt. %, 60° C.) was 4.05 mPa s and the Viscosity ([2]; DMS 19.30 wt. %, 80° C.) was 2.92 mPa s. It also gave a Viscosity ([2]; DMS 19.78 wt. %, 20° C.) of 188 mPa s, a Viscosity ([2]; DMS 19.78 wt. %, 40° C.) of 69 mPa s and a Viscosity ([2]; DMS 19.78 wt. %, 60° C.) of 33 mPa s. It also gave a Viscosity ([2]; DMS 19.78 wt. %, 80° C.) of 19 mPa s, a Viscosity ([2]; DMS 20.1 wt. %, 20° C.) of 29.9 mPa s and a Viscosity ([2]; DMS 20.1 wt. %, 20° C. after cooling from 80° C.) of 31.0 mPa s. The Viscosity ([2]; DMS 20.1 wt. %, 40° C.) was 14.8 mPa s, the Viscosity ([2]; DMS 20.1 wt. %, 60° C.) was 8.7 mPa s and the Viscosity ([2]; DMS 20.1 wt. %, 80° C.) was 5.7 mPa s. It also gave a Viscosity ([2]; DMS 29.88 wt. %, 5° C.) of 113 mPa s, a Viscosity ([2]; DMS 29.88 wt. %, 10° C.) of 81 mPa s and a Viscosity ([2]; DMS 29.88 wt. %, 20° C.) of 51 mPa s. The Viscosity ([2]; DMS 29.88 wt. %, 40° C.) was 22 mPa s, the Viscosity ([2]; DMS 29.88 wt. %, 60° C.) was 13 mPa s and the Viscosity ([2]; DMS 29.88 wt. %, 80° C.) was 8 mPa s. The Viscosity ([2]; DMS 39.61 wt. %, 5° C.) was 23 mPa s, the Viscosity ([2]; DMS 39.61 wt. %, 10° C.) was 20 mPa s and the Viscosity ([2]; DMS 39.61 wt. %, 20° C.) was 14 mPa s. For the same compound, the Viscosity ([2]; DMS 39.61 wt. %, 40° C.) was 8 mPa s, the Viscosity ([2]; DMS 39.61 wt. %, 60° C.) was 6 mPa s and the Viscosity ([2]; DMS 39.61 wt. %, 80° C.) was 4 mPa s. The “lowering the viscosity of a crude oil” value ([2]; three crudes, wide range of initial viscosities) was “effective for significantly lowering the viscosity”.
